From the METLIN SMRT retention time set (Domingo-Almenara et al. 2019)

Assay: gradient 5% acetonitrile 3 min, to 50% in 2 min, to 85% in 15 min, held 3 min, 100 µL/min
Details: column: Zorbax Extend-C18 2.1 x 50 mm; eluents: water / acetonitrile, 0.1% formic acid
Method in brief: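 Pure standards were analyzed in mixtures of ~100 molecules using HPLC coupled to a quadrupole time-of-flight mass spectrometer, in both positive and negative ionization mode. Separation used a Zorbax Extend-C18 column (2.1 × 50 mm, 1.8 μm) at 100 μL/min, with water and acetonitrile each containing 0.1% formic acid. Dead and dwell volumes were 40 μL and 900 μL, and data were collected over 3 months. Retention time was read from computationally picked adduct peaks, each inspected manually.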

| SMILES | RP-LC retention time [s] |
| --- | --- |
| Nc1nc(OCc2cc(Br)cs2)c2[nH]cnc2n1 | 687 |
| COc1ccc(Cn2c(C)c(CNCc3ccccn3)c(C(=O)O)c2C)cc1 | 690 |
| COC(=O)c1cnc2nc(C)ccc2c1Nc1ccc(Cl)cc1 | 705 |
| CN(C)c1ccc(C(=O)Nc2cnc(N3CCOCC3)nc2)cc1 | 729 |
| CC(C)(C)c1ccc(OCC(=O)Nc2ccnn2Cc2ccco2)cc1 | 1010 |
| COC(=O)c1cnc2nc(C)ccc2c1Nc1ccc(OC)cc1 | 647 |
| CC(C)c1ccc(NC(=O)Cn2nc3c4sc(N(C)C)nc4ncn3c2=O)cc1 | 782 |
| Cc1cccc(Oc2coc3cc(OC(=O)c4ccncc4)ccc3c2=O)c1 | 984 |
| CN(CC1CCCO1)S(=O)(=O)c1ccc(C(=O)Nc2sc3c(c2C#N)CCC3)cc1 (stereo unspecified) | 957 |
| Cn1c(=O)c(=O)n(CC(=O)NCCc2ccco2)c2cccnc21 | 646 |
| CCc1ccc(C(=O)N2CCC3(C2)C(=O)N(C)c2ccc(OC)cc23)cc1 (stereo unspecified) | 840 |
| O=C(Nc1ncc(Cc2ccc(Cl)cc2)s1)c1ccco1 | 869 |
| CCOc1ccc(-c2cc3c(=O)n(Cc4nc(-c5ccc(OCC)c(OC)c5)no4)ncn3n2)cc1 | 1150 |
| COC(=O)c1ccc(C(=O)NCCN2CCN(C(=O)OC(C)(C)C)CC2)cc1 | 580 |
| Cn1c(C(=O)NCc2ccccc2Cl)cc2ccncc21 | 643 |
| O=C(CCS(=O)(=O)c1ccccc1)NCc1cc(-c2ccccc2F)on1 | 742 |
| COC(=O)c1sc(-c2ccccc2)cc1NC(=O)c1ccc([N+](=O)[O-])s1 | 1370 |
| COc1cccc(-c2[nH]ncc2CNS(=O)(=O)c2cc(OC)ccc2OC)c1 | 756 |
| O=C(Cn1nc2c3cc(-c4ccccc4)nn3ccn2c1=O)NC1CCCCC1 | 873 |
| Cc1ccc(C(=O)CC2(O)C(=O)Nc3ccc(F)cc32)cc1C (stereo unspecified) | 776 |
| CCCN1C(=O)CCc2cc(NS(=O)(=O)c3ccc(Cl)c(Cl)c3)ccc21 | 983 |
| Cc1ccc(NC(=O)NCC(c2cccnc2)c2cn(C)c3ccccc23)cc1C (stereo unspecified) | 753 |
| Cc1ccc(C(=O)Nc2nc(-c3ccc4c(c3)NC(=O)C(C)O4)cs2)cc1 (stereo unspecified) | 918 |
| Cc1ccccc1CN1CCN(CC(=O)NC2CCN(Cc3ccccc3)CC2)C(=O)C1=O | 633 |

| SMILES | RP-LC retention time [s] |
| --- | --- |
| CCOC(=O)c1ccc(NC(=O)N2CCc3nc[nH]c3C2)cc1 | 609 |
| Cc1ccc(-c2nnc(-c3cccc(S(=O)(=O)NCC4CCCO4)c3)o2)cc1 (stereo unspecified) | 918 |
| CCN1C(=O)Cc2c(C)nc(-c3ccc(OC)cc3)nc21 | 880 |
| CC(C)C[C@H]1C(=O)N2CCC[C@H]2[C@]2(O)O[C@](NC(=O)[C@@H]3C=C4c5cccc6[nH]c(Br)c(c56)CC4N(C)C3)(C(C)C)C(=O)N12 (stereo partly specified) | 830 |
| Cc1ccc(N2C(=O)CN(S(=O)(=O)c3ccccc3)CC2(C)C(=O)NC2CCCC2)cc1C (stereo unspecified) | 963 |
| O=C(Nc1ccc(F)cc1)Oc1ccc[nH]c1=O | 684 |
| CCCNC(=O)N1CCCN(C2=NS(=O)(=O)C(c3ccc(CC)cc3)=C2C)CC1 | 809 |
| CCc1ccc(N2C(=O)C3N=NN(Cc4nc(-c5ccc(Br)cc5)no4)C3C2=O)cc1 (stereo unspecified) | 1130 |
| O=c1c2cc(-c3ccccc3)nn2ccn1CC(O)c1ccccc1 (stereo unspecified) | 846 |
| O=C(NC1CC1)c1ccc(OCC2CCN(C(=O)Cc3cccs3)CC2)cc1 | 780 |
| COc1cc(OC)c(NC(=O)c2ncoc2-c2ccc(OC)c(OC)c2)cc1Cl | 1140 |
| Cc1c(-c2ccnc(N3CCN(Cc4ccccc4)CC3)n2)cnc2nc(-c3ccccc3)nn12 | 713 |
| Cc1ccc(N(C)S(=O)(=O)c2cc3n(c2)CCCN(C(C)C)C3=O)cc1 | 865 |
| O=C(Nc1ccc(SCC(=O)N2CCN(c3ccccc3)CC2)nn1)c1ccccc1 | 796 |
| Cc1ccc(C)c(N2CCN(Cc3nc4nc(C)cc(N5CCN(C)CC5)n4n3)CC2)c1 | 593 |
| O=C(c1ccco1)C(C(c1cccc(Cl)c1)N1CCOCC1)N1CCOCC1 (stereo unspecified) | 782 |
| O=C(CCc1ccccc1)Nc1nc(-c2cccc3ccccc23)cs1 | 1170 |
| CCOc1ccc(-c2ccc(OCCNS(=O)(=O)c3ccccc3Cl)nn2)cc1 | 891 |
| O=C(CSc1ncnc2c(-c3ccccc3)c[nH]c12)Nc1ccc2c(c1)OCO2 | 824 |
| CCOc1ccc(CC(=O)N2CCC3(CC2)Nc2cc(OC)ccc2-n2cccc23)cc1OCC | 1030 |
| O=C(O)CCCCC(CCSCc1ccccc1)SCc1ccccc1 (stereo unspecified) | 670 |
| Cc1ncsc1C1N(C2CCN(S(=O)(=O)c3ccccc3)CC2)C(=O)C12CCCC2 (stereo unspecified) | 850 |
| CCC(C)C(NC(=O)Cc1ccccc1Cl)C(=O)Nc1nc2ccccc2[nH]1 (stereo unspecified) | 776 |
| O=C(CN1CCN(Cc2ccc(F)cc2)C1=O)NCc1ccc(N2CCCC2)cc1 | 761 |

Further lines, results first:

| RP-LC retention time [s] | SMILES |
| --- | --- |
| 818 | Cc1cccc(NC(=O)C2CCN(S(=O)(=O)c3ccc4c(c3)NC(=O)C(C)O4)CC2)c1C (stereo unspecified) |
| 853 | CCCN(CC1CCOC1)C(=O)Nc1cccc(Cl)c1F (stereo unspecified) |
| 706 | O=C1C(=O)N(C2CCN(C(=O)c3ccc(Br)o3)CC2)CCN1Cc1ccccc1 |
| 792 | N#Cc1ccc(NC(=O)C2CCN(S(=O)(=O)c3cc(C(=O)N4CCCC4)cs3)CC2)cc1 |
| 625 | Cn1nc(-c2ccccc2)nc1C1CN(C(=O)NCC2CCCO2)C1 (stereo unspecified) |
| 647 | COCCCn1cc(C(=O)N2CCCC2)c2nn(-c3ccccc3)c(=O)c-2c1 |
| 999 | Cc1ccc(-c2nnc(-c3nn(C)c4c3CN(S(=O)(=O)c3cccc(F)c3)CC4)o2)cc1 |
| 859 | CC(NC(=O)c1ccco1)c1nc(-c2ccc(N3CCCCC3)cc2)no1 (stereo unspecified) |
| 983 | CN(CCc1noc(-c2ccc(F)cc2)n1)C(=O)Nc1ccccc1Cl |
| 738 | CC(=O)N1CCc2cc(N3CC(C(=O)Nc4cccc(Cl)c4)CC3=O)ccc21 (stereo unspecified) |
| 730 | CCN1C(=O)c2cccnc2Sc2cc(C(=O)N3CCCCC3)ccc21 |
| 776 | Cc1cc(F)ccc1NC(=O)c1cc2n(n1)CC(C)(C(=O)NC1CCCCC1)N(C)C2=O (stereo unspecified) |
| 693 | Cc1nn(C)c(C)c1CNC(=O)CN1C(=O)C2CCCCN2c2ccc(S(=O)(=O)N(C)C)cc21 (stereo unspecified) |
| 989 | CCCn1c(=O)sc2cc(S(=O)(=O)N3CCC(C(=O)N4CCc5ccccc5C4)CC3)ccc21 |
| 701 | O=C(NC1CCCC1)N1CCC(c2noc(-c3cccnc3)n2)C1 (stereo unspecified) |
| 701 | Cc1cccc2nnc(N3CCN(C(=O)c4ccc(Cl)s4)CC3)n12 |
| 1070 | Cc1ccc(-c2nc(C3CCN(C(=O)C4CC(=O)N(c5ccc(C)c(C)c5)C4)CC3)no2)cc1 (stereo unspecified) |
| 863 | CCn1cnc2ccc(-c3noc(-c4ccc(Cl)cc4)n3)cc21 |
| 990 | Cn1nc(-c2nnc(-c3ccccc3)o2)c2c1CCN(S(=O)(=O)c1ccccc1C(F)(F)F)C2 |

| RP-LC retention time [s] | SMILES |
| --- | --- |
| 626 | COc1ccc(Cc2nc(-c3ccc4c(c3)ncn4CCN3CCCCC3)no2)cc1 |
| 1210 | CCCn1c(=O)c2c(C(=O)N3CCN(c4ccc(Cl)cc4)CC3)cc(=O)n(CCC)c2n(C)c1=O |
| 860 | O=S(=O)(c1c(F)cccc1F)N1CCC2(CC1)OCCS2 |
| 780 | Cc1cc(NC(=O)CSc2nc(-c3cccs3)nc3c2c(=O)n(C)c(=O)n3C)no1 |
| 713 | O=C(NCC1CCCO1)N1CC(c2nc(CCOCc3ccccc3)no2)C1 (stereo unspecified) |
| 782 | O=C(c1ccc(Cl)cc1)N1CCC(n2c(-c3ccoc3)nc3cccnc32)C1 (stereo unspecified) |
| 837 | Cn1nc(-c2nc(C3CC3)no2)c2c1CCN(C(=O)c1c(F)cccc1Cl)C2 |
| 1120 | Cc1ccc(-c2noc(-c3cccc(S(=O)(=O)N4CCOCC4)c3)n2)cc1 |
| 896 | Cc1c(Cl)cccc1-n1ccn2cc(-c3ccc(F)cc3)nc2c1=O |
| 730 | CCOC(=O)c1nc2cc(C)c(C)cc2nc1N1CCN(c2ccccn2)CC1 |
| 868 | Cc1[nH]c(C(=O)N2CCC(CC(=O)NCc3cccc(Cl)c3)CC2)c(C)c1C(=O)OC(C)C |
| 766 | Cc1cc(Cl)ccc1NC(=O)Cc1nnc(-c2ccc3ncccc3c2)o1 |
| 780 | COc1ccc(CNC(=O)CN2C(=O)NC(c3ccc(Cl)cc3)C3=C2COC3=O)cc1 (stereo unspecified) |
| 682 | COc1ccc(OC)c(NC(=O)N2CCCC(Cn3cnc4cccnc43)C2)c1 (stereo unspecified) |
| 950 | CCCN1C(=O)COc2cc(-c3noc(C(=O)NC(C)CC)n3)ccc21 (stereo unspecified) |
| 744 | CCCNC(=O)C1CCCN(c2nc3ncn(CC(=O)Nc4cc(F)cc(F)c4)c(=O)c3s2)C1 (stereo unspecified) |
| 1090 | COc1ccc(-c2nc(C3CC(=O)N(c4ccc(C)cc4)C3)no2)c(C)c1 (stereo unspecified) |
| 728 | O=C(Nc1cccc(Cl)c1)N1CCN(Cc2nc3ccccc3o2)CC1 |
| 637 | O=C(COc1ccccc1)N1CCCC(c2n[nH]c(C3CC3)n2)C1 (stereo unspecified) |
